The results in this text go back to ChEMBL document CHEMBL6109084 (Eur J Med Chem, 2025).

Each structure is given as a SMILES string. Values after ≈ are worked out from the molar mass of the structure shown. Active and inactive are the calls of the source. The rule behind the calls is not given here.

In one data set the target is Coagulation factor XI (Homo sapiens, UniProt P03951). Description: Inhibition of human FXIa using p-Glu-Pro-Arg-pNA.HCl as substrate incubated for 30 mins followed by substrate addition and measured after 60 mins by microplate reader analysis.
Chain of Coagulation factor XI (P03951 19-387 limits assumed): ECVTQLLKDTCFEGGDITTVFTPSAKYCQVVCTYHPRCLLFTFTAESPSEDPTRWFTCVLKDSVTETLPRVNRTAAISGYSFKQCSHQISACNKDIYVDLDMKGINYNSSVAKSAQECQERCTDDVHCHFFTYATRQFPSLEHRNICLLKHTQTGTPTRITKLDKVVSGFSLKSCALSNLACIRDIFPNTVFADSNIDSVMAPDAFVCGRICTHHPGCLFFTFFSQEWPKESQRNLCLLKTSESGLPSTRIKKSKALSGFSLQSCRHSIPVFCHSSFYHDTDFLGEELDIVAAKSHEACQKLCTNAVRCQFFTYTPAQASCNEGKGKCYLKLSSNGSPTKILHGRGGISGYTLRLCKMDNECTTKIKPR
Chain of Coagulation factor XI (P03951 388-625 limits assumed): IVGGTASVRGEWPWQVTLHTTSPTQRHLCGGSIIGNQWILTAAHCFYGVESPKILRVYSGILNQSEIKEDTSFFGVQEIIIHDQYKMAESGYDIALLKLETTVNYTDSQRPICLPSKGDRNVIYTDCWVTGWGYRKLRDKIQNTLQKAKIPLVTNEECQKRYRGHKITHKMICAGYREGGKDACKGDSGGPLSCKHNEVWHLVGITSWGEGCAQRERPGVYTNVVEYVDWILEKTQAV
For data set [1], the system named is Plasma. Nature of the data set: Anticoagulant activity in citrated human plasma assessed as prolongation of activated partial thromboplastin time at 1 uM incubated for 3 mins by aPTT reagent based automated coagulometric analysis relative to control. The following applies: 0.05 h. Format: functional.
Data set [2] can be described thus: Plasma protein binding in human. Format: ADME, cell-free. The following applies: read-out: PPB (converted).
Data set [3] deals with HK-2. Description: Cytotoxicity against human HK-2 cells assessed as reduction in cell viability at 50 uM incubated for 24 hrs by MTT assay. Format: toxicity, cell-based. The following applies: hk-2, 24 h. In general terms: Tetrazolium assays rely on reduction of a dye to a coloured formazan, in cell work by metabolically active cells.
The test system of data set [4] is Plasma. Description: Anticoagulant activity in citrated human plasma assessed as prolongation of activated partial thromboplastin time incubated for 3 mins by aPTT reagent based automated coagulometric analysis. Format: functional. The following applies: for EC1.5: 0.05 h.
Data set [5] deals with Plasma. Description: Anticoagulant activity in citrated human plasma assessed as prolongation of prothrombin time incubated for 3 mins by PT reagent based automated coagulometric analysis. Format: functional, cell-free.
A further data set has as its target Plasma kallikrein (Homo sapiens, UniProt P03952). Description: Inhibition of PKal (unknown origin) using H-D-Pro-Phe-Arg-pNA.2HCl as substrate incubated for 30 mins followed by substrate addition and measured after 60 mins by microplate reader analysis.
Another data set has as its target T1, Coagulation factor XII (Homo sapiens, UniProt P00748).
T1 sequence (P00748 whole entry): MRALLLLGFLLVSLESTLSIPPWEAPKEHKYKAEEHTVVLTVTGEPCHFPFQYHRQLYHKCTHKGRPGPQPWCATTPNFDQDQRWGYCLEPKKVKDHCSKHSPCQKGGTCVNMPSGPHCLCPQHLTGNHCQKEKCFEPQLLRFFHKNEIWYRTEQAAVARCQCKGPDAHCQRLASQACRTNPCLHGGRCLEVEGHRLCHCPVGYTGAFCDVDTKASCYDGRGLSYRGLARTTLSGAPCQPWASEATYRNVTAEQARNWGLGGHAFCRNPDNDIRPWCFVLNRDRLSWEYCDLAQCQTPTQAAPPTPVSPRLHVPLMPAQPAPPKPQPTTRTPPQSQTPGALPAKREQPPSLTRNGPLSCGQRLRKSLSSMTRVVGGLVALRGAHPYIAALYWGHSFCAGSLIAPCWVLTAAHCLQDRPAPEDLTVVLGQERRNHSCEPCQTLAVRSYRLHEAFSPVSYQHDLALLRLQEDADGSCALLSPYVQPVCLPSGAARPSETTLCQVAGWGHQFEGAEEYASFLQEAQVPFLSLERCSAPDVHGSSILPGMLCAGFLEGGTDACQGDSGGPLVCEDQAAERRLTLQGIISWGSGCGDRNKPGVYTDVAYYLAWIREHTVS
Nature of the data set: Inhibition of FXIIa (unknown origin) using H-D-ProPhe-Arg-pNA.2HCl as substrate incubated for 30 mins followed by substrate addition and measured after 60 mins by microplate reader analysis.

The next data set concerns the target Prothrombin (Homo sapiens, UniProt P00734). Nature of the data set: Inhibition of thrombin (unknown origin) using H-D-Phe-Pip-Arg-pNA.2HCl as substrate incubated for 30 mins followed by substrate addition and measured after 60 mins by microplate reader analysis.
In another data set the target is Coagulation factor X (Homo sapiens, UniProt P00742). Description: Inhibition of FXa (unknown origin) using Z-D-Arg-Gly-Arg-pNA.2HCl as substrate incubated for 30 mins followed by substrate addition and measured after 60 mins by microplate reader analysis.
Chain of Coagulation factor X (P00742 41-179 limits assumed): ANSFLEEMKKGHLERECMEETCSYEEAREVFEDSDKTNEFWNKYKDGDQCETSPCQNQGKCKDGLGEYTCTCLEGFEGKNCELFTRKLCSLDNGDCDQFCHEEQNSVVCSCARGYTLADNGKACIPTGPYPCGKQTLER
Chain of Coagulation factor X (P00742 235-488 limits assumed): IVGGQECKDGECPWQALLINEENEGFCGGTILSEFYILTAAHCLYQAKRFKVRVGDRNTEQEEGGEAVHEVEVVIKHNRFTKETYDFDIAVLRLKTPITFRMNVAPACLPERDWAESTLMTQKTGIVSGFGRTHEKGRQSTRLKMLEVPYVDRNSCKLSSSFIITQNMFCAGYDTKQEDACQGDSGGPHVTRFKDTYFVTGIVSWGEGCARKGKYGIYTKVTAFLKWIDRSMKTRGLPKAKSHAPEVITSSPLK
A further data set addresses Plasminogen (Homo sapiens, UniProt P00747). Nature of the data set: Inhibition of plasmin (unknown origin) using PyroGlu-Phe-Lys-pNA.HCl as substrate incubated for 30 mins followed by substrate addition and measured after 60 mins by microplate reader analysis.
The target in the next data set is Trypsin (Homo sapiens, UniProt P07477+P07478+P35030). Description: Inhibition of trypsin (unknown origin) using Bz-Ile-Glu(gamma-OR)-Gly-Arg-pNA.HCl as substrate incubated for 30 mins followed by substrate addition and measured after 60 mins by microplate reader analysis. Format: protein assay.
A further data set deals with Chymotrypsin (Homo sapiens, UniProt Q99895+P17538+P40313+Q6GPI1). Nature of the data set: Inhibition of chymotrypsin (unknown origin) using N-Suc-Ala-Ala-Pro-Phe-pNA as substrate incubated for 30 mins followed by substrate addition and measured after 60 mins by microplate reader analysis. Format: protein assay.
Data set [6] concerns the target Tissue-type plasminogen activator (Homo sapiens, UniProt P00750). Description: Inhibition of tPA (unknown origin) using H-D-Ile-Pro-Arg-pNA-2HCl as substrate incubated for 30 mins followed by substrate addition and measured after 60 mins by microplate reader analysis.
Data set [7] concerns Plasma. Description: Anticoagulant activity in mouse plasma assessed as prolongation of activated partial thromboplastin time incubated for 3 mins by aPTT reagent based automated coagulometric analysis. The following applies: 0.05 h. Format: functional.
The nature of data set [8]: Selectivity index, ratio of IC50 for inhibition of FXIIa (unknown origin) using H-D-ProPhe-Arg-pNA.2HCl as substrate to IC50 for inhibition of human FXIa using p-Glu-Pro-Arg-pNA.HCl as substrate.
The nature of data set [9]: Selectivity index, ratio of IC50 for inhibition of thrombin (unknown origin) using H-D-Phe-Pip-Arg-pNA.2HCl as substrate to IC50 for inhibition of human FXIa using p-Glu-Pro-Arg-pNA.HCl as substrate.
Data set [10] in a line: Selectivity index, ratio of IC50 for inhibition of FXa (unknown origin) using Z-D-Arg-Gly-Arg-pNA.2HCl as substrate to IC50 for inhibition of human FXIa using p-Glu-Pro-Arg-pNA.HCl as substrate.
Data set [11] in a line: Selectivity index, ratio of IC50 for inhibition of plasmin (unknown origin) using PyroGlu-Phe-Lys-pNA.HCl as substrate to IC50 for inhibition of human FXIa using p-Glu-Pro-Arg-pNA.HCl as substrate.
Data set [12] is described as follows: Selectivity index, ratio of IC50 for inhibition of trypsin (unknown origin) using Bz-Ile-Glu(gamma-OR)-Gly-Arg-pNA.HCl as substrate to IC50 for inhibition of human FXIa using p-Glu-Pro-Arg-pNA.HCl as substrate.
The nature of data set [13]: Selectivity index, ratio of IC50 for inhibition of chymotrypsin (unknown origin) using N-Suc-Ala-Ala-Pro-Phe-pNA as substrate to IC50 for inhibition of human FXIa using p-Glu-Pro-Arg-pNA.HCl as substrate.
A short description of data set [14]: Selectivity index, ratio of IC50 for inhibition of tPA (unknown origin) using H-D-Ile-Pro-Arg-pNA-2HCl as substrate to IC50 for inhibition of human FXIa using p-Glu-Pro-Arg-pNA.HCl as substrate.
For data set [15], the system named is Mus musculus. Nature of the data set: Antithrombotic activity in FeCl3-induced carotid arterial thrombosis C57BL/6J mouse model assessed as increase in blood flow velocity at 10 mg/kg, po measured after 0.5 to 4 hrs. Format: functional, organism-based. The following applies: time 0.5-4 hrs.
Data set [16] has as its system Mus musculus. Nature of the data set: Antithrombotic activity in FeCl3-induced carotid arterial thrombosis C57BL/6J mouse model assessed as increase in peak velocity at 10 mg/kg, po measured after 0.5 to 4 hrs. Format: functional, organism-based. The following applies: time 0.5-4 hrs.
Data set [17] can be described thus: Metabolic stability in human liver microsome assessed as half life. The following applies: liver microsomes. Format: ADME.
Data set [18] can be described thus: Cytotoxicity against human AC16 [Human hybrid] cells assessed as reduction in cell viability at 1 to 50 uM incubated for 24 hrs by MTT assay. Format: toxicity, cell-based. The following applies: dose 1-50 µM.
The next data set deals with HepG2. Nature of the data set: Cytotoxicity against human HepG2 cells assessed as reduction in cell viability at 1 to 50 uM incubated for 24 hrs by MTT assay. The following applies: hepg2, 24 h, dose 1-50 µM. Format: toxicity, cell-based.
Data set [19] deals with HK-2. Description: Cytotoxicity against human HK-2 cells assessed as reduction in cell viability at 1 to 50 uM incubated for 24 hrs by MTT assay. Format: toxicity, cell-based. The following applies: hk-2, 24 h, dose 1-50 µM.
Data set [20] can be described thus: Apparent permeability in MDCK-MDR1 cells. Format: ADME, cell-based, Canis lupus familiaris. The following applies: dog.
The next data set in a line: physchem. The following applies: aqueous medium, pH 7.4.

Chain of Plasminogen (P00747 97-580 limits assumed): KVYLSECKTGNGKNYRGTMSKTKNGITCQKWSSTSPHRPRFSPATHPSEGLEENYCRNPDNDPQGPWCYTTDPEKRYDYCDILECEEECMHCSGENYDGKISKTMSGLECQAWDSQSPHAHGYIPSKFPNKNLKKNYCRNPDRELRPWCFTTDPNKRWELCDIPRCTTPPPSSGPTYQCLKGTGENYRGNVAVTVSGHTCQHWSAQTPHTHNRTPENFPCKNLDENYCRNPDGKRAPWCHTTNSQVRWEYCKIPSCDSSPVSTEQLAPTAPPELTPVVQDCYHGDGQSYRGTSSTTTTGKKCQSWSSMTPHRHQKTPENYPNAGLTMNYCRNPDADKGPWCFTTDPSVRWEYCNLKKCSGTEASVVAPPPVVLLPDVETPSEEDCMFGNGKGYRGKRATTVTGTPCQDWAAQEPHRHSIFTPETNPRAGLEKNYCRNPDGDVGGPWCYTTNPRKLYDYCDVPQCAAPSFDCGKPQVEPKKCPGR
Chain of Plasminogen (P00747 581-810 limits assumed): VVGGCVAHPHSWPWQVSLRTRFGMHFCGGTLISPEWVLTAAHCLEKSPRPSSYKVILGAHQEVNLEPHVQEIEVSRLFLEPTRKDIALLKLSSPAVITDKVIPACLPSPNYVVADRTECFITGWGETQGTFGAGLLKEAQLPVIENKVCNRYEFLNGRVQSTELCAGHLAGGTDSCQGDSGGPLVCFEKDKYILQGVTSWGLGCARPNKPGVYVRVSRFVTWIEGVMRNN
Chain of Plasma kallikrein (P03952 20-390 limits assumed): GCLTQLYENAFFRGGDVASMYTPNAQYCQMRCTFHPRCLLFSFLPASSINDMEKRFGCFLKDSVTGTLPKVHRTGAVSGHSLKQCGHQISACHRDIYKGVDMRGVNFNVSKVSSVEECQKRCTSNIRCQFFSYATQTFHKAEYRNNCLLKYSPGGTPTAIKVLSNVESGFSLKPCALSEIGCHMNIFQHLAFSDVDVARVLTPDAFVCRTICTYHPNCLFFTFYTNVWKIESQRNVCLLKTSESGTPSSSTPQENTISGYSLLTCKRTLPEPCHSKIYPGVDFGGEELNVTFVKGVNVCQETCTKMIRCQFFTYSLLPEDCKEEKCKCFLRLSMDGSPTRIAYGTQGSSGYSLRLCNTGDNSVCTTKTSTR
Chain of Plasma kallikrein (P03952 391-638 limits assumed): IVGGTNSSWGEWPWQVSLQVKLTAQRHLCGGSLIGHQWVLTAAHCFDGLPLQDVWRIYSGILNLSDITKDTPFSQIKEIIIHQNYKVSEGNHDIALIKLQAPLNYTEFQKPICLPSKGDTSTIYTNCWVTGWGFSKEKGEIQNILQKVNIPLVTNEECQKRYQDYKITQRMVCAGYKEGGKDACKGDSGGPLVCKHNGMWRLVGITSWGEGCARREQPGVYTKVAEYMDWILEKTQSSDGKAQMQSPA
Chain of Tissue-type plasminogen activator (P00750 whole entry): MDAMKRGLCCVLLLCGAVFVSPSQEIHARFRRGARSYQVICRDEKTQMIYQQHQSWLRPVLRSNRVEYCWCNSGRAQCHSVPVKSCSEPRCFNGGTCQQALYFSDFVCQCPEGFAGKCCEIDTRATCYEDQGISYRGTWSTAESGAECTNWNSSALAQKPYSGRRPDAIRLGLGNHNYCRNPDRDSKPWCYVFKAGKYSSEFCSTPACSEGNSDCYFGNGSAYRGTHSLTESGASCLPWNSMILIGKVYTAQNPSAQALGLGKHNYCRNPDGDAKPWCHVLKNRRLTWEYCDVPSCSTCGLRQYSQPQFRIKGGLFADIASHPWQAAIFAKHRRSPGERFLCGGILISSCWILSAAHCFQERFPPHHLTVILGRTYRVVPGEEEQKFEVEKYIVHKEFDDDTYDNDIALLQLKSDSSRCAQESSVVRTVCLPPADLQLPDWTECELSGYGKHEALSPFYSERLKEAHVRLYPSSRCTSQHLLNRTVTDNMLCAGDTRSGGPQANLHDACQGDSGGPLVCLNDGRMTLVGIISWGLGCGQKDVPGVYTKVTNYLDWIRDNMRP
Description for physchem: Aqueous solubility of the compound in DMSO at pH 7.4 incubated for 12 hrs by turbidimetric based UV spectrophotometric analysis

On to `CCC(c1cccc(-c2ccc(N)nc2)c1)n1cc(OC)c(-c2cc(Cl)ccc2-n2cnnn2)cc1=O` (stereo not given), for which the IC50 against Coagulation factor XI is 0.24 nM. For the same molecule, the Activity in the data set on Plasma [1] amounted to 45.7%. The fraction unbound in data set [2] was 0.004.

At Coagulation factor XI, `CC[C@H](c1cc(-c2ccc(N)nc2)ccn1)n1cc(OC)c(-c2cc(Cl)ccc2-n2cnnn2)cc1=O` registered an IC50 of 10.6 nM. The Activity is on record as 59.6% in the data set with Plasma [1] and “Toxic” in the data set with HK-2 [3].

Turning to `CC[C@@H](c1cc(-c2ccc(N)nc2)ccn1)n1cc(OC)c(-c2cc(Cl)ccc2-n2cnnn2)cc1=O`, the IC50 is 0.13 nM against Coagulation factor XI; 37 nM against Plasma kallikrein; greater than 1000 nM at Coagulation factor XII; greater than 1000 nM against Prothrombin; greater than 1000 nM at Coagulation factor X; greater than 1000 nM on Plasminogen. Besides, the IC50 (at Trypsin; against Chymotrypsin; in data set [6]) was greater than 1000 nM throughout. Further, the Activity is 368.3% in the data set on Plasma [1], “Dose-dependent-effect” in the data set with Plasma [4] and “Toxic” in the data set on HK-2 [3]. The EC1.5 in the data set on Plasma [4] came out at 0.29 µM; with Plasma [7] it was 1.8 µM. Further, the outcome in the data set with Plasma [5] was inactive. Besides, the Ratio IC50 in data set [8], in [9], in data set [10], in [11], in data set [12] and in data set [13] was greater than 1000 in each case. Also, in [14], the Ratio IC50 is greater than 1000.

At Coagulation factor XI, `COc1cn(Cc2cccc(-c3ccncc3)c2)c(=O)cc1-c1cc(Cl)ccc1-n1cnnn1` yielded a half-inhibitory concentration (IC50) of 0.5 nM. In the data set on Plasma [1], the Activity is 122.1%. Besides, in data set [2], the fraction unbound is 0.027.

With `CC[C@@H](c1cc(-c2ccc(N)nc2F)ccn1)n1cc(OC)c(-c2cc(Cl)ccc2-n2cnnn2)cc1=O`, the IC50 on Coagulation factor XI was 0.31 nM; on Plasma kallikrein, 36 nM; against Coagulation factor XII it was greater than 1000 nM; against Prothrombin, greater than 1000 nM; against Coagulation factor X it was greater than 1000 nM; against Plasminogen, greater than 1000 nM. Besides, the concentration for half-maximal inhibition (IC50) (on Trypsin; against Chymotrypsin; in data set [6]) was greater than 1000 nM throughout. Besides, the figures for the Activity with Plasma [1] and with Plasma [4] were 335.4% and “Dose-dependent-effect”, respectively. Also, the EC1.5 came out at 0.34 µM in the data set on Plasma [4] and 1.5 µM in the data set with Plasma [7]. Moreover, the outcome in the data set on Plasma [5] was inactive. The Ratio IC50 in data set [8], in data set [9], in [10], in data set [11], in data set [12] and in data set [13] was greater than 1000 each time. Further, the Ratio IC50 in data set [14] is greater than 1000.

In the case of `CC[C@@H](C(=O)Nc1ccc(C(N)=O)c(F)c1)n1cc(OC)c(-c2cc(Cl)ccc2-n2cc(Cl)nn2)cc1=O`, the Activity is given as 248.2% with Plasma [1] and “Active; Outperformed Asundexian And Compound F” in the data set with Mus musculus [15]. Moreover, the outcome in the data set with Mus musculus [16] was Active. Moreover, the EC1.5 in the data set on Plasma [7] is 2.7 µM.

Regarding `COc1cn(Cc2cc(-c3ccc(N)nc3)ccn2)c(=O)cc1-c1cc(Cl)ccc1-n1cnnn1`, the IC50 is 0.19 nM against Coagulation factor XI; 97 nM at Plasma kallikrein; greater than 1000 nM on Coagulation factor XII; greater than 1000 nM at Prothrombin; greater than 1000 nM on Coagulation factor X; greater than 1000 nM on Plasminogen. Besides, the IC50 (on Trypsin; at Chymotrypsin; in [6]) was greater than 1000 nM each time. Moreover, the Activity was 193.8% in the data set on Plasma [1]; “Dose-dependent-effect” with Plasma [4]; “Non-toxic” in data set [18]; “Non-toxic” with HepG2; “Non-toxic” in the data set with HK-2 [19]. Also, the half-life in data set [17] is greater than 3 h. Besides, the EC1.5 with Plasma [4] is 0.57 µM. For the same molecule, in the data set with Plasma [5], the result was inactive. Also, the Papp in data set [20] amounted to 0.13 ×10⁻⁶ cm/s. In addition, the Ratio IC50 in data set [8], in [9], in data set [10], in data set [11], in data set [12] and in [13] was greater than 1000 throughout. Moreover, the Ratio IC50 in [14] was greater than 1000. In the data set “physchem”, the solubility (kinetic) at 12 h stood at 193 µg/mL (≈ 396 µM).

`COc1cn(Cc2cc(-c3ccncc3)ccn2)c(=O)cc1-c1cc(Cl)ccc1-n1cnnn1` yielded an IC50 against Coagulation factor XI of 1.2 nM. In the data set on Plasma [1], the Activity came out at 167.2%. Moreover, the fraction unbound in data set [2] is 0.159.

What is called IC50 is the concentration at which inhibition is half-maximal. For orientation: half-life means how long it takes for the measured level to halve. For orientation: Papp means the rate of passage across a membrane or cell layer, normalised by area and donor concentration. Usually kinetic solubility stands for solubility judged after dilution from a stock solution rather than from solid.
